Measured values from patent US20060128979A1, “High purity palm monoglycerides” (Lembaga Minyak Sawit Malaysia, priority 2004, published 2006).

Tests used:
Type in all cases: cell-based
[1] = tested on: methicillin-resistant Staphylococcus aureus (MRSA) isolate U949; experiment: Disc diffusion assay, MRSA isolate U949
Excerpt: (§1) Monolaurin samples (MC, MW and MX) synthesized using the present invention were subjected to bio-assay evaluation. Disc diffusion assay was adopted as preliminary evaluation of the compounds as anti methicillin-resistant Staphylococcus aureus (MRSA) agent. Four types of antibiotics were used as comparison: Vancomycin (Va), Rifampicin (RD), Chloamphenicol (C) and Gentamicin (CN).

[2] = tested on: methicillin-resistant Staphylococcus aureus (MRSA) isolate N34; experiment: Disc diffusion assay, MRSA isolate N34
Excerpt: as §1

[3] = tested on: methicillin-resistant Staphylococcus aureus (MRSA) isolate CT184; experiment: Disc diffusion assay, MRSA isolate CT184
Excerpt: as §1

[4] = tested on: methicillin-resistant Staphylococcus aureus (MRSA) isolate SP521; experiment: Disc diffusion assay, MRSA isolate SP521
Excerpt: as §1

[5] = tested on: methicillin-resistant Staphylococcus aureus (MRSA) isolate SA; experiment: Disc diffusion assay, MRSA isolate SA
Excerpt: as §1

[6] = tested on: methicillin-resistant Staphylococcus aureus (MRSA) isolate ST122; experiment: Disc diffusion assay, MRSA isolate ST122
Excerpt: as §1

[7] = tested on: methicillin-resistant Staphylococcus aureus (MRSA) isolate HIS87; experiment: Disc diffusion assay, MRSA isolate HIS87
Excerpt: as §1

[8] = tested on: methicillin-resistant Staphylococcus aureus (MRSA) isolate D51; experiment: Disc diffusion assay, MRSA isolate D51
Excerpt: as §1

[9] = C (Chloamphenicol) as comparison

| Structure (SMILES) | Diameter of Inhibitory Zone [1, 9] [mm] | Diameter of Inhibitory Zone ([1]; CN (Gentamicin) as comparison) [mm] | Diameter of Inhibitory Zone ([1]; Rd (Rifampicin) as comparison) [mm] | Diameter of Inhibitory Zone ([1]; Va (Vancomycin) as comparison) [mm] | Diameter of Inhibitory Zone [2, 9] [mm] | Diameter of Inhibitory Zone ([2]; CN (Gentamicin) as comparison) [mm] | Diameter of Inhibitory Zone ([2]; Rd (Rifampicin) as comparison) [mm] | Diameter of Inhibitory Zone ([2]; Va (Vancomycin) as comparison) [mm] | Diameter of Inhibitory Zone [3, 9] [mm] | Diameter of Inhibitory Zone ([3]; CN (Gentamicin) as comparison) [mm] | Diameter of Inhibitory Zone ([3]; Rd (Rifampicin) as comparison) [mm] | Diameter of Inhibitory Zone ([3]; Va (Vancomycin) as comparison) [mm] | Diameter of Inhibitory Zone [4, 9] [mm] | Diameter of Inhibitory Zone ([4]; CN (Gentamicin) as comparison) [mm] | Diameter of Inhibitory Zone ([4]; Rd (Rifampicin) as comparison) [mm] | Diameter of Inhibitory Zone ([4]; Va (Vancomycin) as comparison) [mm] | Diameter of Inhibitory Zone [5, 9] [mm] | Diameter of Inhibitory Zone ([5]; CN (Gentamicin) as comparison) [mm] | Diameter of Inhibitory Zone ([5]; Rd (Rifampicin) as comparison) [mm] | Diameter of Inhibitory Zone ([5]; Va (Vancomycin) as comparison) [mm] | other results |
| --- | --- | --- | --- | --- | --- | --- | --- | --- | --- | --- | --- | --- | --- | --- | --- | --- | --- | --- | --- | --- | --- |
| CCCCCCCCCCCC(=O)OCC(O)CO (stereo not shown) [MC, monolaurin] | 4.73 | 1.02 | 1.02 | 7.77 | 0.89 | 0.44 | 0.44 | 2.99 | 0.82 | 0.35 | 0.42 | 2.79 | 2.68 | 1.13 | 1.13 | 7.64 | 2.00 | 0.40 | 0.40 | 2.92 | Diameter of Inhibitory Zone [6, 9]: 5.50 mm; Diameter of Inhibitory Zone ([6]; CN (Gentamicin) as comparison): 1.17 mm; Diameter of Inhibitory Zone ([6]; Rd (Rifampicin) as comparison): 1.17 mm; Diameter of Inhibitory Zone ([6]; Va (Vancomycin) as comparison): 8.26 mm; Diameter of Inhibitory Zone [7, 9]: 0.84 mm; Diameter of Inhibitory Zone ([7]; CN (Gentamicin) as comparison): 0.96 mm; Diameter of Inhibitory Zone ([7]; Rd (Rifampicin) as comparison): 0.11 mm; Diameter of Inhibitory Zone ([7]; Va (Vancomycin) as comparison): 2.79 mm; Diameter of Inhibitory Zone [8, 9]: 0.87 mm; Diameter of Inhibitory Zone ([8]; CN (Gentamicin) as comparison): 0.86 mm; Diameter of Inhibitory Zone ([8]; Rd (Rifampicin) as comparison): 0.11 mm; Diameter of Inhibitory Zone ([8]; Va (Vancomycin) as comparison): 2.95 mm |
| CCCCCCCCCCCC(=O)OCC(O)CO (stereo not shown) [MW, monolaurin] | 1.85 | 0.40 | 0.40 | 3.04 | 0.93 | 0.46 | 0.46 | 3.12 | 0.82 | 0.35 | 0.42 | 2.79 | 2.14 | 0.90 | 0.90 | 6.12 | 3.72 | 0.74 | 0.74 | 5.42 | Diameter of Inhibitory Zone [6, 9]: 4.25 mm; Diameter of Inhibitory Zone ([6]; CN (Gentamicin) as comparison): 0.90 mm; Diameter of Inhibitory Zone ([6]; Rd (Rifampicin) as comparison): 0.90 mm; Diameter of Inhibitory Zone ([6]; Va (Vancomycin) as comparison): 6.38 mm; Diameter of Inhibitory Zone [7, 9]: 0.85 mm; Diameter of Inhibitory Zone ([7]; CN (Gentamicin) as comparison): 0.98 mm; Diameter of Inhibitory Zone ([7]; Rd (Rifampicin) as comparison): 0.12 mm; Diameter of Inhibitory Zone ([7]; Va (Vancomycin) as comparison): 2.84 mm; Diameter of Inhibitory Zone [8, 9]: 0.88 mm; Diameter of Inhibitory Zone ([8]; CN (Gentamicin) as comparison): 0.88 mm; Diameter of Inhibitory Zone ([8]; Rd (Rifampicin) as comparison): 0.11 mm; Diameter of Inhibitory Zone ([8]; Va (Vancomycin) as comparison): 3.00 mm |
